Source: article PMC4860631, “Pharmacokinetics and tolerability of NSC23925b, a novel P-glycoprotein inhibitor: preclinical study in mice and rats” (Scientific Reports, 2016)
Like-named read-outs stand apart in the source and are kept apart here.

Experiments:
CYP2D6 = CYP2D6 (Homo sapiens, UniProt P10635); assay: HLM-LC-MS CYP450 inhibition assay, CYP2D6
Experimental: (§1) A sigmoid-shaped curve (Log(inhibitor) vs. Response-Variable slope) was fitted to the data and the IC50 was calculated using GraphPad Prism software.
(§2) This assay used a cocktail of drug-probe substrates that are specific to each isozyme with HLM and LC-MS detection[33][34]. Each test article and reference inhibitor was dissolved in 40% DMSO and 60% acetonitrile (ACN) mixture. […] Substrates were then added to their respective well containing the compound/HLM solution to start the reaction. […] The solution was centrifuged at 4 °C for 30 min at 3,700 rpm and the supernatant was transferred for LC-MS analysis. The concentrations of the metabolites were determined from standard curves using commercially available metabolite standards. Compounds were tested in triplicate. The half maximal inhibitory concentration (IC50) values were determined by plotting the metabolite formation over the logarithm of the compound concentration using Prism 5.0 software (GraphPad Software Inc., San Diego, CA).

CYP3A4 = molecular target: T1, CYP3A4 (Homo sapiens, UniProt P08684); assay: HLM-LC-MS CYP450 inhibition assay, CYP3A4; format: in vitro ADME
T1 construct: from tissue; host or cells: human liver microsomes
Experimental: as §1, §2

in vivo = conditions: male, Sprague-Dawley, rat; for AUC(0-inf): AUC0-inf; for AUC(0-t): AUC0-t; for k el: Kel; for half-life: t1/2
CYP2B6 = molecular target: T2, CYP2B6 (Homo sapiens, UniProt P20813); assay: HLM-LC-MS CYP450 inhibition assay, CYP2B6; format: in vitro ADME
T2 construct: from tissue; host or cells: human liver microsomes
T2 sequence (P20813 1-491): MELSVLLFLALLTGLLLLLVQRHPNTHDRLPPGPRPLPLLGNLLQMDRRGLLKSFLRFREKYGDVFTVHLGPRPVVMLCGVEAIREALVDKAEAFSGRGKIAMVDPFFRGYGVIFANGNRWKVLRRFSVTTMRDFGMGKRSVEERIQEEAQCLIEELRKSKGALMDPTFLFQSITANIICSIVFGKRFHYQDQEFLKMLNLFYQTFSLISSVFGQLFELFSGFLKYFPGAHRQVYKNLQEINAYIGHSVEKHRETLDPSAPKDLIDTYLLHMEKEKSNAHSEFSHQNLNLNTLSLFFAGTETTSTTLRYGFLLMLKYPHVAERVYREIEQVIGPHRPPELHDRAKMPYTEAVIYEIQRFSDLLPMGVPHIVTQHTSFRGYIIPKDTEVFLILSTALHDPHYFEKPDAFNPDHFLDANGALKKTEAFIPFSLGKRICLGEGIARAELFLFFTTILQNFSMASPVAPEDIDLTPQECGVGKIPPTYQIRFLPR
Experimental: Compounds were tested in triplicate.

CYP1A2 = molecular target: T3, CYP1A2 (Homo sapiens, UniProt P05177); assay: HLM-LC-MS CYP450 inhibition assay, CYP1A2; format: in vitro ADME
T3 sequence (P05177 1-516): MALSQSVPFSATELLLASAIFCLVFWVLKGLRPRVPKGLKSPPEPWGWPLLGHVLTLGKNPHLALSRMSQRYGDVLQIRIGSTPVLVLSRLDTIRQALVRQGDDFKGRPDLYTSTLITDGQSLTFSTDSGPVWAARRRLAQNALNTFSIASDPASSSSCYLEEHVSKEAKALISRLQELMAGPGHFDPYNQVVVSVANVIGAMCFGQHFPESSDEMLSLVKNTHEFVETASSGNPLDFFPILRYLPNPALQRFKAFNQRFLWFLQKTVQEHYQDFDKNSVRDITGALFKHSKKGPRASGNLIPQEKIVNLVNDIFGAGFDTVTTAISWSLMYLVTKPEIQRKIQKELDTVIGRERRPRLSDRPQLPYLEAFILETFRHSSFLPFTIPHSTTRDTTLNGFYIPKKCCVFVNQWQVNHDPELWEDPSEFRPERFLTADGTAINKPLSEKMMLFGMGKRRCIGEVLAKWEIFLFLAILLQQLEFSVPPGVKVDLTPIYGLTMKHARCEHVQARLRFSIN

T1 sequence (P08684 whole entry): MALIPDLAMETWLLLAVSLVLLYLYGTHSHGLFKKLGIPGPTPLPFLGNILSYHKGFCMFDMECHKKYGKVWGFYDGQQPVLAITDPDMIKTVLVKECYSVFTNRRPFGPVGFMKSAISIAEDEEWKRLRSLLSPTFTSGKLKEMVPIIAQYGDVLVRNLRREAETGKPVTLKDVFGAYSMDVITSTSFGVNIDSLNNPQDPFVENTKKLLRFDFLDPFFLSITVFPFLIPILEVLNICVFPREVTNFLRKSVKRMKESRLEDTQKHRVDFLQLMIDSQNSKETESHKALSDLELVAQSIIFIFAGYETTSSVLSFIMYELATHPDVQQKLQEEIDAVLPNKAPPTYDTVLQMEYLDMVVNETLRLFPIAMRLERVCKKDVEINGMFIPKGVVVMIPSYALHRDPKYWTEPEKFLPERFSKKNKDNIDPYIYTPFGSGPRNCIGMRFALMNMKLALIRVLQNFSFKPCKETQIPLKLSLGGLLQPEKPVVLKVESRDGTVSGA
CYP2D6, sequence (P10635 whole entry): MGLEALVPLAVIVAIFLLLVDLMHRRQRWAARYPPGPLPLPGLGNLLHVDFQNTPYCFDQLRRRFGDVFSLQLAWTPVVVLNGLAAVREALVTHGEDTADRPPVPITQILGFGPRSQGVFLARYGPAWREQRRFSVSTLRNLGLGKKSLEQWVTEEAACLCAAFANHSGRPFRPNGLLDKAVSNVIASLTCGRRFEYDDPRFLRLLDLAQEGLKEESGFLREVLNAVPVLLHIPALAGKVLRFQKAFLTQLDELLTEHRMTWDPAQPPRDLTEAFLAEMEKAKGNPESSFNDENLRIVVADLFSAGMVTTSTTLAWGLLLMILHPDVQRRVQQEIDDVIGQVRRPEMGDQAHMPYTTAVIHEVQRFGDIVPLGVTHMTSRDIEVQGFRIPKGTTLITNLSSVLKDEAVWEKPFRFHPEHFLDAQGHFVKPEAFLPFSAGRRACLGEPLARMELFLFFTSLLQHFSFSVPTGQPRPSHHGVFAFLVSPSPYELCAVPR

COc1ccc(-c2cc(C(O)C3CCCCN3)c3ccccc3n2)cc1 (stereo not shown) [NSC23925b, (2-(4-methoxyphenyl)-4-quinolinyl)(2-piperidinyl)methanol]
IC50 (CYP2D6; Compound IC50, HLM, substrate bufuralol 10 μM): 1.41 µM
CYP inhibitor class (CYP2D6; HLM, bufuralol): moderate (1–10 μM)
CYP inhibitor class (CYP3A4): weak (IC50 values of >10 μM)
IC50 (CYP3A4; substrate midazolam 5 μM, 1-hydroxylation, read-out: Compound IC50): > 10 µM
IC50 (CYP3A4; substrate not specified, read-out: IC50): > 10 µM
IC50 (CYP3A4; substrate testosterone 80 μM, 6ß-hydroxylation, read-out: Compound IC50): > 10 µM
Cmax (in vivo; ip, 5 mg/kg): 0.128 ± 0.0443 µg/mL
AUC(0-inf) (in vivo; ip, 5 mg/kg): 1.99 ± 0.855 µg·h/mL
AUC(0-t) (in vivo; ip, 5 mg/kg): 1.39 ± 0.173 µg·h/mL
k el (in vivo; ip, 5 mg/kg): 2.29e-05 s⁻¹
half-life (in vivo; ip, 5 mg/kg): 9.24 ± 3.77 h
Tmax (in vivo; ip, 5 mg/kg, tmax): ~2.17 h
AUC(0-inf) (in vivo; iv, 2.5 mg/kg): 0.902 ± 0.0574 µg·h/mL
AUC(0-t) (in vivo; iv, 2.5 mg/kg): 0.766 ± 0.0519 µg·h/mL
clearance (in vivo; iv, 2.5 mg/kg, CL): 2.78 ± 0.184 L/h/kg
k el (in vivo; iv, 2.5 mg/kg): 2.18e-05 s⁻¹
Vd (in vivo; iv, 2.5 mg/kg, VdSS): 32.4 ± 3.06 L/kg
half-life (in vivo; iv, 2.5 mg/kg): 8.86 ± 0.541 h
CYP inhibitor class (CYP2B6; bupropion): moderate (1–10 μM)
IC50 (CYP2B6; substrate bupropion 70 μM, hydroxylation, read-out: Compound IC50): 8.59 µM
CYP inhibitor class (CYP1A2): weak (IC50 values of >10 μM)
IC50 (CYP1A2; substrate phenacetin 30 μM, O-deethylation, read-out: Compound IC50): > 10 µM
